Measurements from patent publication US20220202905A1, “COMPOSITION FOR PREVENTING OR TREATING NEUROTROPHIC KERATITIS WHICH CONTAINS PACAP PEPTIDE OR STABILIZED PACAP PEPTIDE” (SENJU PHARMACEUTICAL CO., LTD., priority 2019, published 2022).
Square brackets hold non-standard residues; d marks the D form. Peptide text beside a SMILES is read from it. Ala(1H-tetrazol-5-yl) = N[C@@H](Cc1nnn[nH]1)C(=O)O

Assays:
PAC1R = molecular target: T1, PAC1R (Homo sapiens, UniProt P41586); experiment: cAMP assay in PAC1R high-expressing CHO-K1 cell line; assay type: cell-based; conditions: Table 12; cAMP inducing effect, CHO-K1 PAC1R high-expressing cells
T1 construct: host or cells: CHO-K1
T1 sequence (P41586 21-468): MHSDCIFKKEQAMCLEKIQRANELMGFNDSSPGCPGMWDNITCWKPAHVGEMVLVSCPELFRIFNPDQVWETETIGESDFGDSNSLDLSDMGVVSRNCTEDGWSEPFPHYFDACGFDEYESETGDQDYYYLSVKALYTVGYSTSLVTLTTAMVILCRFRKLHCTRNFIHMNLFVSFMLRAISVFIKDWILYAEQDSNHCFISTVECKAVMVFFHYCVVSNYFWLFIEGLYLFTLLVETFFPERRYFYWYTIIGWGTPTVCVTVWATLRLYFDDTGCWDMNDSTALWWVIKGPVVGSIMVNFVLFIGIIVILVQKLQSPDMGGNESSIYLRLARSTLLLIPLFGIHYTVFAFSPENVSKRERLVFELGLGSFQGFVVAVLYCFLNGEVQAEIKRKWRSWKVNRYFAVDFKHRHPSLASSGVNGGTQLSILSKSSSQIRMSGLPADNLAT
Protocol: (§1) The cells were cultured for 18 to 24 hours at 37° C. in a 5% C02 incubator, adhering the cells to the plate. […] A 5-fold dilution series was then prepared with the same Cell assay buffer and used in an assay. The cAMP assay was carried out using a Hit Hunter cAMP Assay for Biologics kit (product of DiscoveRx, Cat. No. 90-0075LM25), according to the included kit instructions. […] Next, the culture medium was removed from the CHO-K1 cell culture plate, washing was performed with PBS, and the peptide-cAMP antibody liquid mixtures were added to the cells and incubated for 30 minutes under a 5% CO2 atmosphere at 37° C. A working detection solution was then added and the culture plate was shielded from light with aluminum foil and incubated at 25° C. for 1 hour. After incubation, Solution A was added and the culture plate was shielded from light with aluminum foil and then incubated at 25° C. for 3 hours. […] The obtained value for the Relative Luminescence Unit (RLU) was analyzed with GraphPad Prism Ver 6.05 (product of Graph Pad) and the EC50 value was calculated for each peptide. […] FIG. 2 and Table 11. […] A 5-fold dilution series was then prepared with the same Cell assay buffer and used in an assay. […] A 5-fold dilution series was then prepared with the same Cell assay buffer and used in an assay.

VPAC1R = molecular target: T2, VPAC1R (Homo sapiens, UniProt P32241); experiment: cAMP assay in VPAC1R high-expressing CHO-K1 cell line; assay type: cell-based; conditions: Table 12; cAMP inducing effect, CHO-K1 VPAC1R high-expressing cells
T2 construct: host or cells: CHO-K1
T2 sequence (P32241 31-457): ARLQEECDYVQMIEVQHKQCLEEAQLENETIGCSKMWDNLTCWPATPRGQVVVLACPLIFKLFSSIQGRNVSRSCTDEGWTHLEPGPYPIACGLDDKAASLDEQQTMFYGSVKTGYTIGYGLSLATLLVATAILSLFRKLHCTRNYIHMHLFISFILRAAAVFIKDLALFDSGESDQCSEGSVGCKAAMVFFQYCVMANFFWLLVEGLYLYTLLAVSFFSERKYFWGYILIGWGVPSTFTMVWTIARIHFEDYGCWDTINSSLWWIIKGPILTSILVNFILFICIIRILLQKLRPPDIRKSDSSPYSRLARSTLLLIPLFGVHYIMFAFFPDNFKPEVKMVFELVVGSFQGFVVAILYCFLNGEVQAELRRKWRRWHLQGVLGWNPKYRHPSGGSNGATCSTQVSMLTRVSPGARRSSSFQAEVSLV
Protocol: as §1

[1] = Peptide stability test, phosphate buffer (pH 7.0), 40° C. storage, HPLC remaining rate; assay type: physicochemical
Protocol: Peptides 1 and 3 to 5 synthesized in Example 2 were weighed and dissolved in phosphate buffer (pH 7.0) to prepare 1.0 mM peptide solutions. The 1.0 mM peptide solutions were then diluted with phosphate buffer to 100 μM. After filtering with Chromatdisk (product of Merck Millipore, Millex-GV, 0.22 μm), each filtrate was dispensed into an LC vial (Waters Deactivated […] prepared peptide solutions were incubated for one month or 2 months in a 40° C. thermostatic bath to obtain stored samples. A simultaneously prepared sample among the peptide solutions that was not stored was used as a standard sample (initial sample). The standard sample and the stored samples were stored at -30° C. until sample analysis. Using the total weight of the aqueous peptide solution and storage vessel as the specimen weight, measurements were recorded as the specimen weights before storage and the specimen weights after storage under different storage conditions. The empty weight of the storage vessel was also measured, and the moisture permeability was determined by the following formula. After stirring the standard sample and the stored samples with a vortex mixer, each peptide solution was transferred to an HPLC vial (Deactivated Qsert vial by Waters Co.). Reverse-phase HPLC (HPLC system: Prominence by Shimadzu Corp.) was conducted under the conditions shown in Table 3 below for analysis of the peptide solutions, and chromatograms were obtained. Guard column: XSelect CSH C18 by Waters Co., 5 μm, 4.6×20 mm Guard Cartridge Detection wavelength: 220 nm Mobile phase A: 0.1% formic acid aqueous solution Mobile phase B: 0.1% acetonitrile formate solution Measuring time: 30 minutes Measuring sample injection rate: 50 μL Flow rate: 1.0 mL/min Sample cooler: 4° C. Column temperature: 40° C. Mobile phase delivery: The mixing ratio of mobile phase A and mobile phase B was varied as shown in Table 3 for linear concentration gradient control. The peak area value for the peptide in the chromatogram was calculated, and the remaining rate (remaining rate before correction for water) was calculated using formula (2). The remaining rate after correction for water was also calculated from the remaining rate before correction for water using formula (3), taking into account the moisture permeability of the vessel. Peptides 10 and 11 synthesized in Example 2 were weighed and dissolved in phosphate buffer (pH 7.0) to prepare 1.0 mM peptide solutions. Each solution was filtered with a Chromatdisk (product of Merck Millipore. Millex-GV, 0.22 μm). Each filtrate was diluted to 100 μM with phosphate buffer (pH 7.0) and dispensed into a tube (Protein LoBind Tube by Eppendorf Co.). The prepared peptide solutions were incubated for one month or 2 months in a 40° C. thermostatic bath to obtain stored samples. A simultaneously prepared sample among the peptide solutions that was not stored was used as a standard sample (initial sample). The standard sample and the stored samples were stored at -30° C. until sample analysis. The remaining rate after correction for water for each peptide among the stored samples was measured in the same manner as Example 4, and the results are shown in Table 8.

[2] = Peptide stability test, Tris buffer (pH 7.0), 60° C. storage, HPLC remaining rate; assay type: physicochemical; conditions: Table 7; 100 μM in Tris buffer pH 7.0
Summary of the method: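 Peptides at 100 μM in Tris buffer (pH 7.0) stored 1 or 2 weeks at 60° C.; unstored sample kept at −30° C. as initial reference. Remaining peptide quantified by reversed-phase HPLC at 220 nm (formic acid/acetonitrile gradient, 40° C. column), as water-corrected remaining rate.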

[3] = Table 8, 100 μM in phosphate buffer pH 7.0, measured as in Example 4

EC50 (PAC1R) | EC50 (VPAC1R) | remaining rate after correction for water, 40° C., 1 month preservation [1, 3] | remaining rate after correction for water, 40° C., 2 months preservation [1, 3] | stability in aqueous solution (in words), 40° C. storage ([1]; phosphate buffer pH 7.0, 1 or 2 months) | remaining rate after correction for water, 60° C., 1 week preservation [2] | remaining rate after correction for water, 60° C., 2 weeks preservation [2] | SMILES
0.06 nM | 0.101 nM |  |  |  |  |  | CC[C@H](C)[C@H](NC(=O)CNC(=O)[C@H](Cc1nnn[nH]1)NC(=O)[C@H](CO)NC(=O)[C@@H](N)Cc1c[nH]cn1)C(=O)N[C@@H](Cc1ccccc1)C(=O)N[C@H](C(=O)N[C@@H](CC(=O)O)C(=O)N[C@@H](CO)C(=O)N[C@@H](Cc1ccc(O)cc1)C(=O)N[C@@H](CO)C(=O)N[C@@H](CCCNC(=N)N)C(=O)N[C@@H](Cc1ccc(O)cc1)C(=O)N[C@@H](CCCNC(=N)N)C(=O)N[C@@H](CCCCN)C(=O)N[C@@H](CCC(N)=O)C(=O)N[C@@H](CCSC)C(=O)N[C@@H](C)C(=O)N[C@H](C(=O)N[C@@H](CCCCN)C(=O)N[C@@H](CCCCN)C(=O)N[C@@H](Cc1ccc(O)cc1)C(=O)N[C@@H](CC(C)C)C(=O)N[C@@H](C)C(=O)N[C@@H](C)C(=O)N[C@H](C(=O)N[C@@H](CC(C)C)C(N)=O)C(C)C)C(C)C)[C@@H](C)O [Peptide 3]
 | 0.101 nM | 94.0% | 86.8% | stabilized to the same degree |  |  | CC[C@H](C)[C@H](NC(=O)CNC(=O)[C@H](Cc1nnn[nH]1)NC(=O)[C@H](CO)NC(=O)[C@H](Cc1c[nH]cn1)NC(C)=O)C(=O)N[C@@H](Cc1ccccc1)C(=O)N[C@H](C(=O)N[C@@H](Cc1nnn[nH]1)C(=O)N[C@@H](CO)C(=O)N[C@@H](Cc1ccc(O)cc1)C(=O)N[C@@H](CO)C(=O)N[C@@H](CCCNC(=N)N)C(=O)N[C@@H](Cc1ccc(O)cc1)C(=O)N[C@@H](CCCNC(=N)N)C(=O)N[C@@H](CCCCN)C(=O)N[C@@H](CCC(N)=O)C(=O)N[C@@H](CCSC)C(=O)N[C@@H](C)C(=O)N[C@H](C(=O)N[C@@H](CCCCN)C(=O)N[C@@H](CCCCN)C(=O)N[C@@H](Cc1ccc(O)cc1)C(=O)N[C@@H](CC(C)C)C(=O)N[C@@H](C)C(=O)N[C@@H](C)C(=O)N[C@H](C(=O)N[C@@H](CC(C)C)C(N)=O)C(C)C)C(C)C)[C@@H](C)O [Peptide 10] (Ac-HS[Ala(1H-tetrazol-5-yl)]GIFT[Ala(1H-tetrazol-5-yl)]SYSRYRKQMAVKKYLAAVL-NH2)
0.079 nM | 0.072 nM |  |  |  | 96.5% | 93.1% | CC[C@H](C)[C@H](NC(=O)[C@H](C)NC(=O)[C@H](Cc1nnn[nH]1)NC(=O)[C@H](CO)NC(=O)[C@H](Cc1c[nH]cn1)NC(C)=O)C(=O)N[C@@H](Cc1ccccc1)C(=O)N[C@H](C(=O)N[C@@H](Cc1nnn[nH]1)C(=O)N[C@@H](CO)C(=O)N[C@@H](Cc1ccc(O)cc1)C(=O)N[C@@H](CO)C(=O)N[C@@H](CCCNC(=N)N)C(=O)N[C@@H](Cc1ccc(O)cc1)C(=O)N[C@@H](CCCNC(=N)N)C(=O)N[C@@H](CCCCN)C(=O)N[C@@H](CCC(N)=O)C(=O)N[C@@H](CC(C)C)C(=O)N[C@@H](C)C(=O)N[C@H](C(=O)N[C@@H](CCCCN)C(=O)N[C@@H](CCCCN)C(=O)N[C@@H](Cc1ccc(O)cc1)C(=O)N[C@@H](CC(C)C)C(=O)N[C@@H](C)C(=O)N[C@@H](C)C(=O)N[C@H](C(=O)N[C@@H](CC(C)C)C(N)=O)C(C)C)C(C)C)[C@@H](C)O [Peptide 23] (Ac-HS[Ala(1H-tetrazol-5-yl)]AIFT[Ala(1H-tetrazol-5-yl)]SYSRYRKQLAVKKYLAAVL-NH2)
0.06 nM | 0.044 nM |  |  |  | 96.4% | 93.5% | CC[C@H](C)[C@H](NC(=O)CNC(=O)[C@H](Cc1nnn[nH]1)NC(=O)[C@H](CO)NC(=O)[C@H](Cc1c[nH]cn1)NC(C)=O)C(=O)N[C@@H](Cc1ccccc1)C(=O)N[C@H](C(=O)N[C@@H](Cc1nnn[nH]1)C(=O)N[C@@H](C)C(=O)N[C@@H](Cc1ccc(O)cc1)C(=O)N[C@@H](CO)C(=O)N[C@@H](CCCNC(=N)N)C(=O)N[C@@H](Cc1ccc(O)cc1)C(=O)N[C@@H](CCCNC(=N)N)C(=O)N[C@@H](CCCCN)C(=O)N[C@@H](CCC(N)=O)C(=O)N[C@@H](C)C(=O)N[C@@H](C)C(=O)N[C@H](C(=O)N[C@@H](CCCCN)C(=O)N[C@@H](CCCCN)C(=O)N[C@@H](Cc1ccc(O)cc1)C(=O)N[C@@H](CC(C)C)C(=O)N[C@@H](C)C(=O)N[C@@H](C)C(=O)N[C@H](C(=O)N[C@@H](CC(C)C)C(N)=O)C(C)C)C(C)C)[C@@H](C)O [Peptide 27] (Ac-HS[Ala(1H-tetrazol-5-yl)]GIFT[Ala(1H-tetrazol-5-yl)]AYSRYRKQAAVKKYLAAVL-NH2)
